Data reported in patent publication US20170258769A1, “A Method for Topically Treating Actinic Keratosis on the Trunk (except chest) and Extremities with Ingenol 3-(3,5-diethylisoxazole-4-carboxylate)” (LEO Laboratories Limited, priority 2014, published 2017).

Legend:
actinic keratosis = experiment: Part 2: open-label trial, 0.1% gel once daily for three consecutive days on trunk (except chest) and extremities; type: in vivo, human
From the text: The outcome for Part 2 is safety and efficacy in a once daily application for three consecutive days on the trunk (except chest) and extremities. The efficacy in treating of the AK will be measured as reduction in AK count in the treated area of lesions which are not considered hyperkeratotic/hypertrophic.
In parallel the efficacy in treating of the AK will be measured as reduction in AK count in the treated area of lesions which are considered hyperkeratotic/hypertrophic.
The reduction in AK count will be performed at week 4 and 8 no matter the type of lesion. Also complete clearance of AKs in the treated area which are not considered hyperkeratotic/hypertrophic at week 8 will be measured.
The trial medication applied is preferably a gel. The gel formulation comprises: isopropyl alcohol, hydroxyethyl cellulose, benzyl alcohol, citric acid monohydrate, sodium citrate dehydrate and water and active compound in a 0.1% concentration. For this particular trial, the dosing is two unit dose tubes daily, each containing 0.67 g.
To qualify for part 2 of the trial, the subjects must have 5-20 clinically visible and discrete AKs within a contiguous are of approximately 250 cm^2 area on the trunk (except chest) and extremities. In addition to the requirement of 5-20 clinically typical, visible and discrete AKs within the selected treatment area, subjects may also have visible and discrete hyperkeratotic/hypertrophic lesions in this area. The subjects will be treated with a dose of 0.1% as a once daily three consecutive days treatment and followed for 8 weeks.
The trial consists of an initial part, where 18 subjects will be treated on the trunk (except chest) and extremities. […] As this is a safety trial, it is considered justified to conduct this clinical trial as an open-label, uncontrolled trial. An early safety and tolerability evaluation will be performed following the 3 days treatment. If safety and tolerability is found acceptable by the Early Data Review Committee, and additional 44 subjects will be enrolled in order to expand safety observations and obtain an estimate of treatment efficacy.
LSRs are evaluated at all visits following visit 1. AK lesion counts are performed on Visit 2, 6 and 7.
tactile) assessment of the extent of photo-damage in the treatment area with respect to 1) fine wrinkling, 2) coarse wrinkling, 3) mottled pigmentation, 4) roughness, 5) sallowness, 6) skin laxity, and 7) telangiectasia. Severity for each of these characteristics will be on a 5-point scale: None (0), Mild (1), Moderate (2), Severe (3), Extreme (4).
At Visit 7 (Week 8) the Investigator will make an overall clinical (visual and tactile) assessment of the subject's photo-damage change from baseline in the treatment area (including an integrated assessment of fine wrinkling, coarse wrinkling, mottled pigmentation, roughness, sallowness, skin laxity, and telangiectasia based on the subject's appearance at the baseline visit).
At Visit 7 (Week 8), the subjects will complete a self-assessment questionnaire evaluating the change in the 1) overall appearance of the skin and 2) overall feel of the skin after treatment. The scoring will be on a 5-point scale: Much worsened, somewhat worsened, no change, somewhat improved, much improved.
The secondary response criteria will be analysed for the full analysis set and for the per protocol analysis set. The ratio of number of AK lesions at week 8 relative to baseline, excluding lesions identified at base line as hyperkeratotic/hypertrophic lesions, will be tabulated by treatment group. Separately for each treatment group, the rate and corresponding 95% confidence interval will be estimated from a negative binomial regression on the AK count at week 8 with the log baseline value as an offset variable. The same analysis will be performed for the subgroup of lesions identified as hyperkeratotic/hypertrophic at baseline. […]

[1] = Part 1: dose escalation trial, gel once daily for two consecutive days, dose limiting toxicity based on local skin reactions; type: in vivo, human
From the text: Local skin reactions (LSRs) occur sometimes in the treated area. Often LSRs are quantified by a scale evaluating the following types of skin reactions: erythema, flaking/scaling, crusting, swelling, vasiculation/postulation, and erosion/ulceration which are categorized into categories 0-4 depending on the severity of the reactions. The present invention utilizes data obtained from a previous dose escalation trial, wherein maximal tolerated doses were identified.
In the trial pre-defined grades of LSRs will constitute Dose Limiting Toxicity.
Dose Limiting toxicity (DLT) is defined one or more of the following LSRs: • crusting Grade 4 • Erosion/ulceration Grade 4 • vesiculation/postulation Grade 4 or
Two or more of the following LSRs: • Crusting Grade 3 • Swelling grade 4 • Erosion/ulceration Grade 3 • vesiculation/postulation Grade 3 or • other clinically relevant signs or symptoms observed, which the Investigator judges to be counted as a DLT. Maximum tolerated dose (MTD) is declared as dose level at which less than 4 subjects out of experience a DLT of cohort of 12 subjects.
Part 1 was a dose escalation study conducted with a once daily application of trial medication for two consecutive days and continued until the MTD was identified.
Dose escalation proceeded if the safety and tolerability data of the subject up to day 8 was reviewed and considered satisfactory. The treatment consisted of once daily treatment for 2 consecutive days. Up to 5 different doses may be investigated in cohorts of 1 subject. The number of subjects in each cohort depended on the number of observed DLTs. However, the MTD was always be confirmed in a cohort of 12 subjects. […] Part 2 is a study of the efficacy of the 0.1% dose identified in part 1 in a three day regimen.
Part 1: Trial medication, ingenol 3-(3,5-diethylisoxazole-4-carboxylate) gel, will be applied to the treatment area once daily for two consecutive days until the maximum tolerated dose has been reached for each formulation. Up to five different doses of active compound in gel may be investigated in cohorts 12 subjects. […]

dermal tumours = experiment: in vivo studies in mice, effects on dermal tumours
From the text: The exact mechanism of action of ingenol 3-(3,5-diethylisoxazole-4-carboxylate) continues to be investigated, but it is believed that ingenol 3-(3,5-diethylisoxazole-4-carboxylate) has a dual mechanism of action inducing cell death as well as stimulation of immune response.

[2] = highest dose 0.1%, once daily for 2 consecutive days

## CCc1noc(CC)c1C(=O)O[C@H]1C(C)=C[C@]23C(=O)[C@@H](C=C(CO)[C@@H](O)[C@]12O)[C@H]1[C@@H](C[C@H]3C)C1(C)C [ingenol 3-(3,5-diethylisoxazole-4-carboxylate)]
Actinic keratosis; 0.1% gel, once daily three consecutive days
  side-effects: acceptable
Actinic keratosis; 0.1% gel, once daily three consecutive days, approx. 250 cm^2 area, week 8, 62 patients
  reduction in AK count: 59%
Actinic keratosis; 0.1% gel, once daily three consecutive days, week 8
  complete clearance: 23%
Actinic keratosis; 0.1% gel, once daily three consecutive days, rapid decline thereafter
  time at which side-effects maximize: 4 days
Actinic keratosis; 0.1% gel, three day regimen
  cosmetic outcome of the treatment: good
Actinic keratosis; investigator assessment, fraction of patients
  patients with photo damage improved: two-thirds
Actinic keratosis; self-assessment by subject
  subjects reporting improvement in appearance and feel: more than 70%
[1]; [2]
  dose limiting toxicity (DLT): no real DLT was identified
  tolerability: well tolerated
[1]; selected dose (0.1%), two days dosing regimen
  tolerability with respect to LSRs and application site reaction: well tolerated
Dermal tumours
  efficacy in eliminating dermal tumours, compared with ingenol mebutate: more efficacious than ingenol mebutate
